The text below walks through data of patent US11020392B2, “Use of trimetazidine as a hepatoprotective medicine in prevention and treatment of liver diseases and conditions” (Martin Pharmaceuticals, Inc., priority 2015, dated 2021).

In data set [1] the test system is liver of liver failure patients. Put plainly: PET-CT imaging of liver FDG uptake before and after treatment. The format is in vivo, human. The settings on record: liver failure patient(s), after vs before treatment; FIG. 4. From the text:
Intriguingly, we were able to compare the PET-CT images before and after liver failure recovery in two participants who underwent PET-CT imaging due to suspicious liver lesions by magnet renascence imaging.

The next data set relates to SD rats. Put plainly: Hyperammonemia rat model (oral ammonium chloride, 30 days). The note with it: OA (LOLA) 0.8 g/kg, TMZ 0.002 g/kg orally, or both; FIG. 8. It is filed as in vivo. The text has this:
All five groups of rats were sacrificed after 30 days with pentobarbital anesthesia. Cardiac blood samples were collected to test blood levels of ammonia, ALT and AST. Liver biopsy specimens were collected and subject to hematoxylin-eosin (HE) staining and TUNEL staining to assess pathology.

Data set [2] deals with liver failure patients. Put plainly: Large-scale randomized clinical trial, 165 liver failure patients (control, LOLA, TMZ+LOLA). From the text:
We recruited totally 298 patients with liver failure according to the American and European criteria.

For data set [3], the system named is liver failure patients. Description: Clinical cohort study of trimetazidine in hepatic failure patients (ALT/AST decrease, TMZ vs DCA). The settings on record: after 5 days of treatment, both groups also on basic treatment incl. LOLA, FIG. 2. It is filed as in vivo, human. From the text: The single-center cohort study was adopted as the clinical trial method.
In accordance with relevant references and the results of previous trials, the number of cases shall be no less than 50. Taking into account the number of loss to follow up and possible drop-out (to be controlled around 10%), 60 cases are required to be selected (30 cases for the trial group and 30 cases for the control group).
All serious hepatitis patients enrolled between Aug. 19, 2014 and […] were put in the control group; and all those enrolled between December 9 and the application date were in the trial group.
2. Exclusion Criteria • Patients under 18 or over 70 years old; • Patients diagnosed with shock liver (ischemic liver disease); • Patients with liver failure in pregnancy or HELLP syndrome; • Patients with liver failure secondary to malignant tumor in the liver; • Patients with refractory hypotension • Patients with septic shock; • Patients about to receive liver transplant (within 8 hours); • Patients allergic to trimetazidine drug; • Patients […] of trimetazidine drug; • Abuser of drugs and/or alcohol; • Pregnant or lactation women; • Patients with recent myocardial infarct (within half a year); • Patients with serious renal inadequacy.
2. Control group: Diisopropylamine Dichloroacetate (DCA) (80 mg/D) for the control group in this trial, provided by Dandong Yichuang Pharmaceutical Co., Ltd, for a 4-week course of treatment.
3. Both trial group and control group were also given basic treatment to meet ethical requirements. […] HBV-related liver failure patients were also treated with lamivudine.
1. Alanine aminotransferase (ALT), tested by chromatometry, with products provided by Roche Diagnostics (Shanghai) Ltd.
2. Aspartate transaminase (AST), tested by chromatometry, with products provided by Roche Diagnostics (Shanghai) Ltd.

The subject of a further data set is Chang liver cells. The format is cell-based. The settings on record: 10 mM NH4Cl; 1 mM LOLA, 1 mM TMZ, or 1 mM TMZ+1 mM LOLA; hypoxic (10% O2); FIG. 7. On the procedure:
Chang liver cells (American Type Culture Collection No. CCL-13) was cultured in RPMI1640 medium (Solarbio) containing 10% fetal bovine serum (Gibco), 100 u/mL penicillin and 100 μg/mL […], at 37° C. and under hypoxic conditions (10% O2, 5% CO2) and saturated humidity.

The subject of data set [4] is patients with liver failure / serious hepatitis. Put plainly: Clinical cases: individual patients given oral TMZ on top of combined treatment. It is filed as in vivo, human. The text has this: Case 1: The patient had past positive HBsAg for over 20 years, during which they took multiple reexaminations of liver function and, as the results of all color ultrasound examinations were within normal range, they were not given any special treatment. Three months before, after catching cold and overwork, they developed abdominal distension and yellow urine, and was admitted to hospital following aggravation of the condition over 6 days. On admission, they were complicated with massive seroperitoneum and serious xanthochromia throughout the skin and mucosa of their whole body, feeling serious nausea, anorexia and feebleness.
Case 2: had had yellow urine for 25 days and dry mouth and bitter taste in mouth for 10 days before they came to the First Affiliated Hospital of Zhengzhou University. […] If they had been treated with the original approach, it would probably have taken two months before they could be discharged from hospital.
Case 3: had past positive HBsAg for 8 years, without regular treatment or periodic reexamination of relevant indicators. […] They took orally some “stomach medicine” (specific medicine not known) with poor effect. After the aforesaid symptoms aggravated for half a month, with urine turning as yellow as strong tea water, they were admitted to the First Affiliated Hospital of Zhengzhou University on Jan. 21, 2015. […] In merely 12 days, the patient achieved decrease of transaminase by dozens of times, relief from the critical condition, alleviated hepatocyte inflammatory responses and a favorable condition for liver cells, and greatly shortened length of hospitalization.
Case 4: […] They felt abdominal distension and nausea, accompanied with hydroncus in lower limbs, when they were tired half a month ago. For further treatment, they were admitted to the First Affiliated Hospital of Zhengzhou University on Jan. 13, 2015. Color ultrasound examination of abdomen detected diffuse changes of echo patterns of liver, cholecystolithiasis and cholecystitis. […] The patient's liver enzyme decreased to normal level after a short period, meeting the requirements for a surgical operation. Following the operation, their abdominal pain disappeared, with liver enzyme back to normal level and improved appetite. Their quality of life improves now without any discomfort.
Case 5: had past positive HBsAg for over 10 years, with HBsAg (+), HBeAg (+) and HBcAb (+), and had atrial fibrillation over 5 years, during which they orally took traditional Chinese medicine intermittently, but without regular treatment. They complained of feebleness, nausea, dry mouth and bitter taste, and anorexia for 6 days, and was hospitalized on Jan. 31, 2015. After admission, they had ALT 1881 u/L, AST 699 u/L, and prothrombin time activity (PTA) at 26%. The patient was extremely weak, in very poor spirits, with very poor appetite. A notice of critical illness diagnosis was given. […] The patient achieved a rapid decrease of transaminase and obvious improvement of liver synthesis function, and was safe from the critical condition. They continued to take the medicine till maturity of the treatment course, to improve the hepatocyte microcirculation and excretion of bilirubin. The patient soon recovered and left hospital.

Take `COc1ccc(CN2CCNCC2)c(OC)c1OC.Cl.Cl` [TMZ, 1-[2,3,4-trimethoxybenzyl]piperazine dihydrochloride]: in data set [1], the “FDG uptake / hepatic glucose metabolism of liver (PET-CT)” value is “remarkably improved”. Further, the “integrity of mitochondrial structure in hepatocytes exposed to ammonia (electron microscope)” value with SD rats is reported as “nearly reversed the ammonia-induced mitochondria injury”. Further, the 30-day immortality rate result with liver failure patients [2] (TMZ treatment group (TMZ+LOLA), TMZ 20 mg orally three times a day, 4 weeks, 44% with traditional therapeutic approach, FIG. 5) is “approximately 18%”. Moreover, in the data set with liver failure patients [2] (TMZ treatment group (TMZ+LOLA), TMZ 20 mg orally three times a day, 4 weeks, 68% with traditional therapeutic approach, FIG. 5), the 90-day immortality rate came out at 35%. Besides, the “serious adverse reaction during the clinical trial” value with liver failure patients [2] (liver failure patients, TMZ 20 mg three times a day) is listed as “no serious adverse reaction occurred”. For the same compound, in the data set on liver failure patients [3], the “ALT decrease (k, mathematical model)” value is 259.4. Moreover, the “AST decrease (k, mathematical model)” value with liver failure patients [3] stood at 362.53. The “reduction of ammonia in hepatocytes” value in the data set on Chang liver cells is “greater effects compared to both LOLA treatment and TMZ+LOLA co-treatment”. Moreover, the ALT in data set [4] (Case 1, HBsAg positive person, 12 days of TMZ one tablet three times a day plus combined treatment, ALT 270 u/L at admission) is reported as 41 u/L; in data set [4] (Case 2, serious drug-induced hepatitis, oral TMZ 20 days plus combined treatment, ALT 983 u/L at admission) it was 95 u/L; in data set [4] (Case 3, acute-on-chronic liver failure, oral TMZ plus antiviral treatment, admitted Jan. 21, reexamined February 5 (12 days), ALT 1386 u/L at admission), 76 u/L; in data set [4] (Case 4, HBsAg positive person, oral TMZ 13 days plus hepatoprotective and antiviral treatment, ALT 599 u/L before), 66 u/L. Further, the AST worked out at 68 u/L in data set [4] (Case 1, 12 days of TMZ, AST 303 u/L at admission); 52 u/L in data set [4] (Case 2, oral TMZ 20 days, AST 484 u/L at admission); 85 u/L in data set [4] (Case 3, reexamined February 5, AST 1368 u/L at admission); 79 u/L in data set [4] (Case 4, oral TMZ 13 days, AST 663 u/L before); 77 u/L in data set [4] (Case 5, one week of oral TMZ, AST 699 u/L at admission). Moreover, in data set [4] (Case 2, oral TMZ 20 days, 401.9 umol/L at admission), the total bilirubin is 130 µmol/L. Further, in data set [4] (Case 5, one week of oral TMZ, 26% at admission), the “prothrombin time activity (PTA)” value was 48%.

Consider Diisopropylamine Dichloroacetate [DCA], for which, in the data set on liver failure patients [3], the “ALT decrease (k, mathematical model)” value came out at 67.325 and the “AST decrease (k, mathematical model)” value is 142.77.
